The values that follow come from patent US11773094B2, “Farnesoid X receptor agonists and uses thereof” (Metacrine, Inc., priority 2018, dated 2023).

Molecules are shown by their SMILES. Some results are limits rather than exact numbers.

For the assay, the target named is T1, hFXR (Homo sapiens, UniProt Q96RI1).
T1 construct: expressed in transfected cells; host or cells: CV-1 cells
T1 sequence (Q96RI1 1-486): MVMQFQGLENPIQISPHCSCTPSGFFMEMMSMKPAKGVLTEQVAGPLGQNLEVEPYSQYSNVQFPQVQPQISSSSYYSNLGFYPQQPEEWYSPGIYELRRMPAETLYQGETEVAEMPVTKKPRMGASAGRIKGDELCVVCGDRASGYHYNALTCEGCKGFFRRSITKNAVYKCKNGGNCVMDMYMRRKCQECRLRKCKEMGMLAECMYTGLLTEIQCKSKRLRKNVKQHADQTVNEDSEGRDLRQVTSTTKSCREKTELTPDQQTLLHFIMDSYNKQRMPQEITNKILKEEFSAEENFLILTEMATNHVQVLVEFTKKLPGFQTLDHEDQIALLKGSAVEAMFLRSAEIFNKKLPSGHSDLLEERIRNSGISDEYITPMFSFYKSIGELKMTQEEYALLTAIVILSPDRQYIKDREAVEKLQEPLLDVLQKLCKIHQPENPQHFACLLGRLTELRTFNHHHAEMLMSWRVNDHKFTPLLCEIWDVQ
T1 sequence (P19793 1-462 partner): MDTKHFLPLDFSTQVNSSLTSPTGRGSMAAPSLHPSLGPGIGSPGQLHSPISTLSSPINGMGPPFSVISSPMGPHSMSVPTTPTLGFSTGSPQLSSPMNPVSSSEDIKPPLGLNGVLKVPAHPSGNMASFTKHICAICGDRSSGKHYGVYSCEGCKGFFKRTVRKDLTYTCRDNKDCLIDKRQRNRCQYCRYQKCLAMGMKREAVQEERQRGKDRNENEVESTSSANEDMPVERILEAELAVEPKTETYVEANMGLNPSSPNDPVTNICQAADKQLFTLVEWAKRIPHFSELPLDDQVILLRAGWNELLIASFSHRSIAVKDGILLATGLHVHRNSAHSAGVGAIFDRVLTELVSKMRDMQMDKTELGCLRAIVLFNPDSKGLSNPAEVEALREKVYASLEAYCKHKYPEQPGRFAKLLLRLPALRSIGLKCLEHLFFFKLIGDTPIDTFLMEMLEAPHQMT
Put plainly: In Vitro FXR Assay (TK): TK-ECRE-luc reporter in transfected CV-1 cells. The assay is classed as cell-based. As to conditions: CV-1 cells transfected with hFXR, hRXR, pCMX-YFP, 18 hrs incubation, luminescence. In a few lines:
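First, CV-1 cells were grown overnight in stripped-serum DMEM, then transfected for 18 h with expression plasmids for human FXR and RXR plus a TK-ECRE luciferase reporter and YFP. Next, serially diluted compounds were applied for 18 h, and lysates were read by luminescence.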
Take `COc1ccc(C23CCC(CN(c4cc(-c5cnn(C(C)(C)C)c5)ccn4)C(=O)[C@H]4CC[C@H](OC(=O)N5CCC(N(C)C)C5)CC4)(CC2)CC3)cc1C` (stereo partly drawn) [Compound 2.26, 4-((4-(1-(tert-Butyl)-1H-pyrazol-4-yl)pyridin-2-yl)((4-(4-methoxy-3-methylphenyl)bicyclo[2.2.2]octan-1-yl)methyl)carbamoyl)cyclohexyl 3-(dimethylamino)pyrrolidine- trans-1-carboxylate]: the EC50 was not above 10 nM.

For `COc1ccc(C23CCC(CN(c4cc(-c5cnc(C(C)(C)C)s5)ccn4)C(=O)[C@H]4CC[C@H](OC(=O)N5CC(CO)C5)CC4)(CC2)CC3)cc1C` [Compound 3.08, 4-((4-(2-(tert-Butyl)thiazol-5-yl)pyridin-2-yl)((4-(4-methoxy-3-methylphenyl)bicyclo[2.2.2]octan-1-yl)methyl)carbamoyl) (trans-cyclohexyl) 3-(hydroxymethyl)azetidine-1-carboxylate], the half-maximal effective concentration (EC50) was not above 10 nM.

`COc1ccc(C23CCC(CN(c4cc(-c5cnn(C(C)(C)C)c5)ccn4)C(=O)[C@H]4CC[C@H](OC(=O)NC5CCS(=O)(=O)CC5)CC4)(CC2)CC3)cc1C` [Compound 2.39, 4-((4-(1-(tert-Butyl)-1H-pyrazol-4-yl)pyridin-2-yl)((4-(4-methoxy-3-methylphenyl)bicyclo[2.2.2]octan-1-yl)methyl)carbamoyl) cyclohexyl trans-(1,1-dioxidotetrahydro-2H-thiopyran-4-yl)carbamate] showed an EC50 of 10 to 1000 nM.

In turn, `COc1ccc(C23CCC(CN(c4cc(-c5cnn(C(C)(C)C)c5)ccn4)C(=O)[C@H]4CC[C@H](OC(=O)NC5CCSCC5)CC4)(CC2)CC3)cc1C` [Compound 2.29, 4-((4-(1-(tert-Butyl)-1H-pyrazol-4-yl)pyridin-2-yl)((4-(4-methoxy-3-methylphenyl)bicyclo[2.2.2]octan-1-yl)methyl)carbamoyl)cyclohexyl trans-(tetrahydro-2H-thiopyran-4-yl)carbamate] yielded an EC50 of 10 to 1000 nM.

`COc1ccc(C23CCC(CN(c4cc(-c5ccn(C(C)(C)C)n5)ccn4)C(=O)[C@H]4CC[C@H](OC(=O)N5CC(O)C5)CC4)(CC2)CC3)cc1C` [Compound 4.10, 4-((4-(1-(tert-Butyl)-1H-pyrazol-3-yl)pyridin-2-yl)((4-(4-methoxy-3-methylphenyl)bicyclo[2.2.2]octan-1-yl)methyl)carbamoyl) cyclohexyl trans-3-hydroxyazetidine-1-carboxylate] displayed an EC50 of 10 to 1000 nM.

`COc1ccc(C23CCC(CN(c4cc(-c5coc(C(C)(C)C)n5)ccn4)C(=O)[C@H]4CC[C@H](OC(=O)NC5CCOCC5)CC4)(CC2)CC3)cc1C` [Compound 3.11, 4-((4-(2-(tert-Butyl)oxazol-4-yl)pyridin-2-yl)((4-(4-methoxy-3-methylphenyl)bicyclo[2.2.2]octan-1-yl)methyl)carbamoyl) cyclohexyl (tetrahydro-2H-pyran-4-yl)trans-carbamate] returned a concentration giving a half-maximal response (EC50) not above 10 nM.

Compound `CCC(C)(C)n1cc(-c2ccnc(N(CC34CCC(c5ccc(OC)c(C)c5)(CC3)CC4)C(=O)[C@H]3CC[C@H](OC(=O)N4CC(O)C4)CC3)c2)cn1` [Compound 4, 4-(((4-(4-Methoxy-3-methylphenyl)bicyclo[2.2.2]octan-1-yl)methyl)(4-(1-(tert-pentyl)-1H-pyrazol-4-yl)pyridin-2-yl)carbamoyl) cyclohexyl trans-3-hydroxyazetidine-1-carboxylate] returned a concentration for a half-maximal effect (EC50) not above 10 nM.

For `CN(C)c1ccc(C23CCC(CN(c4cc(-c5cnn(C(C)(C)C)c5)ccn4)C(=O)[C@H]4CC[C@H](OC(=O)N5CC(O)C5)CC4)(CC2)CC3)cn1` [Compound 3.06, 4-((4-(1-(tert-Butyl)-1H-pyrazol-4-yl)pyridin-2-yl)((4-(6-(dimethylamino)pyridin-3-yl)bicyclo[2.2.2]octan-1-yl)methyl)carbamoyl) (trans-cyclohexyl) 3-hydroxyazetidine-1-carboxylate], the half-maximal effective concentration (EC50) is 10 to 1000 nM.

Compound `COc1ccc(C23CCC(CN(c4cc(-c5cnn(C(C)(C)C)c5)ccn4)C(=O)[C@H]4CC[C@H](OC(=O)N5CC(OCCO)C5)CC4)(CC2)CC3)cc1C` [Compound 2.25, 4-((4-(1-(tert-Butyl)-1H-pyrazol-4-yl)pyridin-2-yl)((4-(4-methoxy-3-methylphenyl)bicyclo[2.2.2]octan-1-yl)methyl)carbamoyl) (trans-cyclohexyl) 3-(2-hydroxyethoxy)azetidine-1-carboxylate] gave an EC50 not above 10 nM.

In turn, `COc1ccc(C23CCC(CN(c4cc(-c5cnc(C(C)(C)C)s5)ccn4)C(=O)[C@H]4CC[C@H](OC(=O)NCCO)CC4)(CC2)CC3)cc1C` [Compound 2.06, 4-((4-(2-(tert-Butyl)thiazol-5-yl)pyridin-2-yl)((4-(4-methoxy-3-methylphenyl)bicyclo[2.2.2]octan-1-yl)methyl)carbamoyl)cyclohexyl (2-hydroxyethyl)trans-carbamate] showed a half-maximal effective concentration (EC50) not above 10 nM.

Consider `COc1ccc(C23CCC(CN(c4cc(-c5cnc(C(C)(C)C)s5)ccn4)C(=O)[C@H]4CC[C@H](OC(=O)NCCC(C)(C)O)CC4)(CC2)CC3)cc1C` [Compound 2.08, 4-((4-(2-(tert-Butyl)thiazol-5-yl)pyridin-2-yl)((4-(4-methoxy-3-methylphenyl)bicyclo[2.2.2]octan-1-yl)methyl)carbamoyl) (trans-cyclohexyl) (3-hydroxy-3-methylbutyl)carbamate], for which the EC50 was not above 10 nM.
